According to ChEMBL document CHEMBL5321209, “Design, synthesis of novel benzimidazole derivatives as ENL inhibitors suppressing leukemia cells viability via downregulating the expression of MYC” (Eur J Med Chem, 2023):
Values belong to the compound of their own block, whether it stands above or below them. Activity calls are given as the source filed them. The rule behind the calls is not given here.

How the values were obtained:
[1] = target: T1, Protein ENL (Homo sapiens, UniProt Q03111); test: Binding affinity to C-terminal ENL YEATS domain (unknown origin) (M1 to A148 residues) assessed as dissociation constant by ITC assay
T1 sequence (Q03111 whole entry): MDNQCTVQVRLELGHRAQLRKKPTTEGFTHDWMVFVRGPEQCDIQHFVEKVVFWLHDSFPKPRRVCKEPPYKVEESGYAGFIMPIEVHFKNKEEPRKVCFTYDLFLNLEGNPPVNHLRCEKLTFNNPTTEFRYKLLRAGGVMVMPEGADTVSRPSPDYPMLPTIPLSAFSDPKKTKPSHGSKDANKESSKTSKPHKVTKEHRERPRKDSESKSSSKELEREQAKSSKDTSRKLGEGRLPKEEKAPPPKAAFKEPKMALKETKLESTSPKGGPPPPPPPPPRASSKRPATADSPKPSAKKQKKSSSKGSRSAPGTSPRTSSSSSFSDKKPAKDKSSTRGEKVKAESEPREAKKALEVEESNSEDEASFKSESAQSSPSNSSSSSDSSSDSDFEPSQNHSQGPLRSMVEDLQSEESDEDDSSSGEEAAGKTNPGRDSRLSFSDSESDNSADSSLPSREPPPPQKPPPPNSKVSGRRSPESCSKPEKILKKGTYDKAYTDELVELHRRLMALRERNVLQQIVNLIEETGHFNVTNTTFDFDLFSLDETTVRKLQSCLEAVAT

[2] = target: T1, Protein ENL; test: Inhibition of C-terminal ENL YEATS domain (unknown origin) (M1 to A148 residues) using biotinylated peptide as substrate by alpha screen assay
[3] = target: T2, Protein ENL (Homo sapiens) (UniProt Q03111); settings: dose 333.0 nM, time 45.0 min
T2 sequence (whole entry): T1 sequence (Q03111 whole entry)

[4] = target: T2, Protein ENL (Homo sapiens); settings: dose 111.0 nM, time 45.0 min
[5] = target: T1, Protein ENL; test: Inhibition of C-terminal 6xHis-tagged ENL YEATS domain (1 to 148 residues) (unknown origin) expressed in Escherichia coli BL21(DE3) cells using biotin-H3K27ace as substrate incubated for 45 mins by alpha screen assay
[6] = test system: MOLM-13; test: Antiproliferative activity against human MOLM-13 cells assessed as inhibition of cell growth measured after 72 hrs by Cell Titer-Glo luminescent assay; assay type: functional, cell-based; settings: MOLM-13, 72 h
[7] = test system: MV4-11; test: cells; settings: Homo sapiens, MV4-11, 72 h
Description: Antiproliferative activity against human MV4-11 cells assessed as inhibition of cell growth measured after 72 hrs by Cell Titer-Glo luminescent assay

[8] = target: T2, Protein ENL (Homo sapiens); settings: dose 25.0 µM
[9] = AUC (0 to t) in BALB/c mouse at 30 mg/kg, po measured after 0.5 to 24 hrs by LC-MS/MS assay; assay type: ADME, organism-based; set-up: dose 30 mg/kg, time 0.5-24 hrs, route po; settings: in vivo
[10] = Tmax in BALB/c mouse at 30 mg/kg, po measured after 0.5 to 24 hrs by LC-MS/MS assay; assay type: ADME, organism-based; settings: in vivo, time 0.5-24 hrs
[11] = MRT (0 to infinity) in BALB/c mouse at 30 mg/kg, po measured after 0.5 to 24 hrs by LC-MS/MS assay; assay type: ADME, organism-based; settings: in vivo, time 0.5-24 hrs
[12] = Half life in BALB/c mouse at 30 mg/kg, po measured after 0.5 to 24 hrs by LC-MS/MS assay; assay type: ADME, organism-based; settings: in vivo, time 0.5-24 hrs
[13] = target: T2, Protein ENL (Homo sapiens); settings: dose 50.0 µM
[14] = AUC (0 to infinity) in BALB/c mouse at 30 mg/kg, po measured after 0.5 to 24 hrs by LC-MS/MS assay; assay type: ADME, organism-based; set-up: time lower 0.5 hrs, dose 30 mg/kg, time upper 24 hrs, route po; settings: in vivo
[15] = Cmax in BALB/c mouse at 30 mg/kg, po measured after 0.5 to 24 hrs by LC-MS/MS assay; assay type: ADME, organism-based; set-up: dose 30 mg/kg, time 0.5-24 hrs, route po; settings: in vivo
[16] = target: T2, Protein ENL (Homo sapiens); settings: dose 12.5 µM
Description: Binding affinity to C-terminal 6xHis-tagged ENL YEATS domain (1 to 148 residues) (unknown origin) expressed in Escherichia coli BL21(DE3) cells assessed as thermal stability by measuring change in melting temperature at 12.5 uM by SYPRO dye-based thermal shift assay

[17] = target: T2, Protein ENL (Homo sapiens); settings: dose 6.3 µM
Description: Binding affinity to C-terminal 6xHis-tagged ENL YEATS domain (1 to 148 residues) (unknown origin) expressed in Escherichia coli BL21(DE3) cells assessed as thermal stability by measuring change in melting temperature at 6.3 uM by SYPRO dye-based thermal shift assay

[18] = Downregulation of MYC gene expression in human MOLM-13 cells assessed as decrease in fold change at 5 uM for 72 hrs by RT-PCR method relative to JQ-1; assay type: functional
[19] = Downregulation of MYC gene expression in human MOLM-13 cells assessed as fold increase at 5 uM incubated for 72 hrs in presence of JQ-1 by RT-PCR method; assay type: functional
[20] = Downregulation of MYC mRNA level in human MOLM-13 cells at 5 uM incubated for 72 hrs by RT-PCR method relative to control; assay type: functional
[21] = Cytotoxicity against HUVEC-C incubated for 72 hrs by Cell Titer-Glo luminescent assay; assay type: toxicity, cell-based; settings: human
[22] = test system: MRC5; test: Cytotoxicity against human MRC5 cells incubated for 72 hrs by Cell Titer-Glo luminescent assay; assay type: toxicity, cell-based; settings: mrc5, 72 h
[23] = target: T1, Protein ENL; test: Binding affinity to C-terminal 6xHis-tagged ENL YEATS domain (1 to 148 residues) (unknown origin) expressed in Escherichia coli BL21(DE3) cells assessed as dissociation constant by SPR analysis
[24] = target: YEATS domain-containing protein 4 (Homo sapiens) (UniProt O95619); test: Binding affinity recombinant GAS41 YEATS domain (15 to 159 residues) (unknown origin) expressed in Escherichia coli BL21(DE3) cells by SPR assay
Chain of YEATS domain-containing protein 4 (Homo sapiens) (O95619 whole entry, the tested form may be a part): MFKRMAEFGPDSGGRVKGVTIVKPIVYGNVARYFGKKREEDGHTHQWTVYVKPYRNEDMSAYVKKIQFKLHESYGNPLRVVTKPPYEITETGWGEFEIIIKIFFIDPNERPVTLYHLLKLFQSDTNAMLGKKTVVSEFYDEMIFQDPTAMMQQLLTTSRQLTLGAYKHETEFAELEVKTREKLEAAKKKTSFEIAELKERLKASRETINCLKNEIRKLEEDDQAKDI

[25] = test system: MOLM-13; test: Potency index, ratio of SGC-iMLLT IC50 to test compound IC50 for antiproliferative activity against human MOLM-13 cells; assay type: functional
[26] = target: YEATS domain-containing protein 4 (Homo sapiens) (UniProt O95619); test: Binding affinity recombinant GAS41 YEATS domain (15 to 159 residues) (unknown origin) assessed as thermal stability

Structure (SMILES): COC(=O)c1ccc(C(=O)Nc2ccc3[nH]c(CN4CCCCC4)nc3c2)cc1
Kd [1]: 0.754 µM
IC50 [2]: 1.6 µM

Structure (SMILES): C[C@H]1CCCN1Cc1nc2cc(NC(=O)c3ccc4c(cnn4CCN4CC5OC(C)(C)OC5C4C4COC(C)(C)O4)c3)ccc2[nH]1 (stereo not given in full)
inhibition [3]: 99.6%
inhibition [4]: 89%
IC50 [5]: 0.0564 µM

Structure (SMILES): C[C@H]1CCCN1Cc1nc2cc(NC(=O)c3ccc4c(cnn4CCNC(=O)Nc4cccc(F)c4)c3)ccc2[nH]1
inhibition [3]: 97.8%
inhibition [4]: 67.6%
IC50 [5]: 0.046 µM

Structure (SMILES): C[C@H]1CCCN1Cc1nc2cc(NC(=O)c3ccc4c5ccccc5c(=O)n(C)c4c3)ccc2[nH]1
inhibition [3]: 100%
inhibition [4]: 99.2%
IC50 [5]: 0.0318 µM

Structure (SMILES): C[C@H]1CCCN1Cc1nc2cc(NC(=O)c3ccc4c(cnn4CCNC(=O)c4ccccc4)c3)ccc2[nH]1
inhibition [3]: 99%
inhibition [4]: 86.2%
IC50 [5]: 0.0192 µM

Structure (SMILES): Cc1cccc2c(=O)n(C)c3ccc(C(=O)Nc4ccc5[nH]c(CN6CCC[C@@H]6C)nc5c4)cc3c12
inhibition [3]: 95.6%
inhibition [4]: 63.2%
IC50 [5]: 0.0464 µM

Further lines, with some results ahead:

inhibition [3]: 99.2%
inhibition [4]: 90.8%
IC50 [5]: 0.0221 µM
Structure (SMILES): C[C@H]1CCCN1Cc1nc2cc(NC(=O)c3ccc4c(c3)c3cc(F)ccc3c(=O)n4C)ccc2[nH]1

IC50 [6]: > 100 µM
inhibition [3]: 98.5%
IC50 [7]: > 100 µM
inhibition [4]: 79.5%
IC50 [5]: 0.022 µM
Structure (SMILES): C[C@H]1CCCN1Cc1nc2cc(NC(=O)N3C(CO)C(O)C(O)C3CO)ccc2[nH]1 (stereo not given in full)

inhibition [3]: 96.1%
inhibition [4]: 51%
IC50 [5]: 0.0702 µM
Structure (SMILES): C[C@H]1CCCN1Cc1nc2cc(NC(=O)c3ccc4nn(C5CCCC5)cc4c3)ccc2[nH]1

IC50 [6]: 74.7 µM
ΔTm [8]: 3.1 °C
AUC(0-t) [9]: 0.0598 µg·h/mL
inhibition [3]: 99.7%
Tmax [10]: 30 min
IC50 [7]: 35 µM
MRT inf [11]: 60 min
half-life [12]: 30 min
inhibition [4]: 99.8%
ΔTm [13]: 4.3 °C
AUC(0-inf) [14]: 0.061 µg·h/mL
Cmax [15]: 0.0336 µg/mL
ΔTm [16]: 2.2 °C
ΔTm [17]: 1.4 °C
Structure (SMILES): C[C@H]1CCCN1Cc1nc2cc(NC(=O)c3ccc4c(cnn4C)c3)ccc2[nH]1

inhibition [3]: 96.5%
inhibition [4]: 85.4%
IC50 [5]: 0.0722 µM
Structure (SMILES): C[C@H]1CCCN1Cc1nc2cc(NC(=O)c3ccc4c5ccccc5n(C)c4c3)ccc2[nH]1

IC50 [6]: 8.3 µM
ΔTm [8]: 4.3 °C
AUC(0-t) [9]: 0.257 µg·h/mL
inhibition [3]: 100%
Tmax [10]: 30 min
IC50 [7]: 4.8 µM
Kd [23]: 0.017 µM
Activity [24]: inactive
MRT inf [11]: 330 min
half-life [12]: 312 min
inhibition [4]: 99.6%
IC50 [5]: 0.0154 µM
ΔTm [13]: 5.5 °C
AUC(0-inf) [14]: 0.272 µg·h/mL
Cmax [15]: 0.0718 µg/mL
Activity [26]: inactive
ΔTm [16]: 3.3 °C
ΔTm [17]: 1.9 °C
Structure (SMILES): C[C@H]1CCCN1Cc1nc2cc(NC(=O)c3ccc4c(c3)c3ccccc3c(=O)n4C)ccc2[nH]1
fold change (FC) [18]: <2.5
fold change (FC) [19]: >5
Activity [20]: 50%
Activity [21]: Non-Toxic
Activity [22]: Non-Toxic
Ratio IC50 [25]: 9

inhibition [3]: 100%
inhibition [4]: 98.4%
IC50 [5]: 0.0353 µM
Structure (SMILES): CCCCn1cc2cc(C(=O)Nc3ccc4[nH]c(CN5CCC[C@@H]5C)nc4c3)ccc2n1

inhibition [3]: 99.7%
inhibition [4]: 82.4%
IC50 [5]: 0.0367 µM
Structure (SMILES): CCn1cc2cc(C(=O)Nc3ccc4[nH]c(CN5CCC[C@@H]5C)nc4c3)ccc2n1
